Targets include Carbonic anhydrase 3 (Homo sapiens, UniProt P07451); Carbonic anhydrase 12 (Homo sapiens, UniProt O43570); Carbonic anhydrase 9 (Homo sapiens, UniProt Q16790); Carbonic anhydrase 2 (Homo sapiens, UniProt P00918); Carbonic anhydrase 7 (Homo sapiens, UniProt P43166); Carbonic anhydrase 1 (Homo sapiens, UniProt P00915).

Chain of Carbonic anhydrase 3 (P07451 whole entry): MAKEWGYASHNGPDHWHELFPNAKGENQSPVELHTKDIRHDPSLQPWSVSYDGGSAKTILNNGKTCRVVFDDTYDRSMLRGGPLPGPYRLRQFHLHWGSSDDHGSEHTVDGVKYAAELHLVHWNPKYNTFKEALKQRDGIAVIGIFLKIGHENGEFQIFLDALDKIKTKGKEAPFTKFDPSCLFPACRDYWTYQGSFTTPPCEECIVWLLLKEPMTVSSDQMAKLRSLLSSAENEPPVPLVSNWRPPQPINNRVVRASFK
Chain of Carbonic anhydrase 7 (P43166 whole entry): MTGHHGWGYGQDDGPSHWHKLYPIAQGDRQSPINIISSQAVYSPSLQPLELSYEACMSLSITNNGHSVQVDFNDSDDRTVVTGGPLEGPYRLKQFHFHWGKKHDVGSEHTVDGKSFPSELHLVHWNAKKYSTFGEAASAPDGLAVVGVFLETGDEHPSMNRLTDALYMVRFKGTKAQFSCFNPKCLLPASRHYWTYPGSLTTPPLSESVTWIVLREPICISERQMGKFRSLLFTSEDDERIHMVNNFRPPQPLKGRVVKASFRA
Chain of Carbonic anhydrase 1 (P00915 whole entry): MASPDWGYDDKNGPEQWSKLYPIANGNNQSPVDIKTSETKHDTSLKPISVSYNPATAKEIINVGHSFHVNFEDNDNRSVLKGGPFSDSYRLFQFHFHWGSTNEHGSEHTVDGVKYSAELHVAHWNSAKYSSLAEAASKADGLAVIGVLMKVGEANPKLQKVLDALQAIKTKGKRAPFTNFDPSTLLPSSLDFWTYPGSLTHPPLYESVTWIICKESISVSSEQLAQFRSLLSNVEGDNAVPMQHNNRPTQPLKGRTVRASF
Chain of Carbonic anhydrase 12 (O43570 whole entry): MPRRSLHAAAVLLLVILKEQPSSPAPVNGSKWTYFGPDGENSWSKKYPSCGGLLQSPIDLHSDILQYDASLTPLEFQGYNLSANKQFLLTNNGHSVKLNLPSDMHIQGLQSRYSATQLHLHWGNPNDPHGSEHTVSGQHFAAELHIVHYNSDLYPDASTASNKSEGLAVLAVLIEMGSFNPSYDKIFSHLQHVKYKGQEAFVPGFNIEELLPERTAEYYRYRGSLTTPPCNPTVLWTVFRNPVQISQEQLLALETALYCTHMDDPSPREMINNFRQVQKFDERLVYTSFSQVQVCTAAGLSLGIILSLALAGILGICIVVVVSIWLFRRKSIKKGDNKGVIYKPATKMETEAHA

Consider `NS(=O)(=O)c1ccc(N2CCN(CC[C@@H]3OCCc4ccccc43)CC2)cc1` [SONEPIPRAZOLE], for which the Ki on Carbonic anhydrase 3 was > 10000 nM.
Take `C=CCN1CCCC1CNC(=O)c1cc(S(N)(=O)=O)cc(OC)c1OC` (configuration not stated) [VERALIPRIDE]: the Ki at Carbonic anhydrase 12 was 23.9 nM; at Carbonic anhydrase 3 it was > 10000 nM; on Carbonic anhydrase 9 it was 31.1 nM; on Carbonic anhydrase 2, 406 nM; at Carbonic anhydrase 7, 978 nM; at Carbonic anhydrase 1 it was 2720 nM.
